Experimental findings from patent publication EP4631938A1, “NITROGEN-CONTAINING HETEROCYCLE WITH SEROTONIN RECEPTOR-BINDING ACTIVITY AND CARBOCYCLIC DERIVATIVE” (Shionogi & Co., Ltd, priority 2022, dated 2024) are described below.

For test [1], the target named is T1, human recombinant 5-HT2C receptor (Homo sapiens, UniProt P28335).
T1 construct: expressed in transfected cells; host or cells: Jump-In HEK cells (membrane preparation)
T1 sequence (P28335 33-458): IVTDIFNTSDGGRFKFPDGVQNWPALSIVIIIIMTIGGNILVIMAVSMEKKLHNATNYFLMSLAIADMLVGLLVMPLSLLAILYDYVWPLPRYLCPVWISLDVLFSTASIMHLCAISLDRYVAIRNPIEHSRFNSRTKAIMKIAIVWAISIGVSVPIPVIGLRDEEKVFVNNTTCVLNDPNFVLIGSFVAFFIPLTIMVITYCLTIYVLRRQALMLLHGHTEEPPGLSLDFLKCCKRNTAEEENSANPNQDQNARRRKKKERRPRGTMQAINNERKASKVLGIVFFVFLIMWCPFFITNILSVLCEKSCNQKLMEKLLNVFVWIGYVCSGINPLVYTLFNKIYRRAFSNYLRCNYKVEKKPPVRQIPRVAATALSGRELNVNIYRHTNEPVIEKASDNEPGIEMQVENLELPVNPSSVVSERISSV
Nature of the test: Test Example 2: 5-HT2C receptor binding inhibition test ([3H]-Mesulergine; non-specific ligand Serotonin HCl). As to conditions: human serotonin 5-HT2C receptor binding activity. An outline of the steps:
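Filtration binding to membranes bearing human 5-HT2C with [3H]-mesulergine, 2 h at 37°C; non-specific binding defined with 500 µmol/L serotonin HCl, total binding with vehicle. Inhibition rate computed from cpm; Ki derived from dose-response curve, with ligand Kd from Scatchard analysis of saturation binding.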

Test [2] deals with T2, human recombinant 5-HT2A receptor (Homo sapiens, UniProt P28223).
T2 construct: expressed in transfected cells; host or cells: Jump-In HEK cells (membrane preparation)
T2 sequence (P28223 whole entry): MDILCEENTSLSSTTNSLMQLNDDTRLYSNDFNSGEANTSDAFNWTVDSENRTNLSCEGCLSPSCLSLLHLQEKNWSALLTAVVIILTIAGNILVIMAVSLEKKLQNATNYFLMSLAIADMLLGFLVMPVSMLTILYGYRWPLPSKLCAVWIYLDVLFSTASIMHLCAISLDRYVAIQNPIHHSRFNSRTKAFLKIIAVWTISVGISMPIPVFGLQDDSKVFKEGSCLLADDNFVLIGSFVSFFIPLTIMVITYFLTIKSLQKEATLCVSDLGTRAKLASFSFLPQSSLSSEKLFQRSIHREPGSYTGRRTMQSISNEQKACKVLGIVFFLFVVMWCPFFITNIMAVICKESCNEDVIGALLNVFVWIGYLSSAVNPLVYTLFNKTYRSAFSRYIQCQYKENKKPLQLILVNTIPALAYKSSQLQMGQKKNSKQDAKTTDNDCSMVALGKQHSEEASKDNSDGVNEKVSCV
Nature of the test: Test Example 1-2: 5-HT2A receptor binding inhibition test ([3H]-Ketanserin; non-specific ligand Ketanserin). The conditions noted are these: [3H]-Ketanserin; non-specific binding with 500 µmol/L Ketanserin; room temperature (25°C), 1.5 hours; read-out: h 5-HT2A Ki. The method, boiled down: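 Membranes expressing the receptor were incubated with [3H]-ketanserin and compound for 1.5 h at 25 °C, then filtered onto plates presoaked in 50 mmol/L Tris-HCl pH 7.4 and scintillation-counted. Non-specific binding was defined with 500 µmol/L unlabeled ketanserin. Ki was taken from dose-response curves, with Kd set for each membrane lot by Scatchard analysis.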

The structures appear in SMILES notation.

In general, Ki refers to the equilibrium dissociation constant of an inhibitor or competing ligand from its target. `Cc1cnn(C)c1-c1cc(Nc2ncc(OC(F)F)cc2F)ncc1OCCO` [Compound I-178]: the Ki in test [1] is 3.34 nM; in test [2], 0.386 nM.
In the case of `Cc1cc(C(F)(F)F)cnc1Nc1cc(-c2c(C)cnn2C)c(OCCO)cn1` [Compound I-226], the Ki in test [1] amounted to 1.91 nM; in test [2] it was 0.268 nM.
Turning to `Cc1cnn(Cc2nc(C)c(-c3cc(Nc4ncc(C(F)(F)F)cc4Cl)ncc3OCCO)c(C)n2)c1` [Compound I-379], the Ki in test [1] stood at 0.791 nM; in test [2] it was 1.13 nM.
Regarding `Cn1ncc(Br)c1-c1cc(Nc2cnc(C(F)(F)F)cn2)c(F)cc1OCCO` [Compound I-404], the Ki in test [1] was 5.79 nM; in test [2] it was 0.362 nM.
With `Cc1nc(COC2CC2)nc(C)c1-c1cc(Nc2ncc(C(F)(F)F)cc2Cl)ncc1OCCO` [Compound I-374], the values for the Ki in test [1] and in test [2] were 1.8 nM and 0.955 nM, respectively.
`COCc1nc(C)c(-c2cc(Nc3ncc(-c4ccc(Cl)cn4)cc3Cl)ncc2OCCO)c(C)n1` [Compound I-235]: the Ki in test [1] stood at 0.984 nM; in test [2], 0.925 nM.
The like results for `Cn1ncc(Br)c1-c1nc(Nc2ccc(OC(F)F)cn2)c(F)cc1OCCO` [Compound I-294] were, in that order, 2.37 nM and 0.395 nM.
Consider `COCc1nc(C)c(-c2cc(Nc3ncc(-c4ncc(C)s4)cc3Cl)ncc2OCCO)c(C)n1` [Compound I-335], for which the Ki was 1.87 nM in test [1] and 1.18 nM in test [2].
`COCc1nc(C)c(-c2cc(Nc3ncc(OC(F)(F)F)cc3C)ncc2OCCO)c(C)n1` [Compound I-186]: the inhibition constant (Ki) in test [1] was found to be 1.73 nM; in test [2], 1.75 nM.
In the case of `O=C1OCc2c1cccc2-c1cc(Nc2ncc(C(F)(F)F)cc2F)ncc1OCCO` [Compound I-360], the Ki in test [1] is 54.8 nM; in test [2], 1.22 nM.
Take `Cn1ncc(Cl)c1-c1cc(Nc2ncc(OCC(F)F)cc2F)ncc1OCCO` [Compound I-321]: the Ki in test [1] amounted to 3.63 nM; in test [2], 0.305 nM.
For `Cn1ncc(Br)c1-c1nc(Nc2ccc(Cl)cn2)c(F)cc1OCCO` [Compound I-278], the values for the Ki in test [1] and in test [2] were 3.56 nM and 0.203 nM, respectively.
For the compound `Cn1ncc(C#N)c1-c1nc(Nc2ccc(-c3ccc(F)cc3)cn2)c(F)cc1OCCO` [Compound I-190], the results for the Ki in test [1] and in test [2] were 9.08 nM and 0.493 nM, respectively.
With `Cc1cnn(C)c1-c1nc(Nc2ccc(OC(F)(F)F)cc2)ncc1OCCO` [Compound I-356], the values for the Ki in test [1] and in test [2] were 7.79 nM and 0.163 nM, respectively.
The like results for `COCc1nc(C)c(-c2cc(Nc3ncc(C(F)(F)F)cc3Cl)ncc2OCCO)c(C)n1` [Compound I-201] were, in that order, 2.54 nM and 2.26 nM.
For `Cc1cnn(C)c1-c1cc(Nc2ncc(OC(F)(F)F)cc2F)ncc1OCCO` [Compound I-292], the Ki stood at 2.4 nM in test [1] and 0.385 nM in test [2].
With `COCc1nc(C)c(-c2cc(Nc3ncc(-c4ccc(C#N)nc4)cc3Cl)ncc2OCCO)c(C)n1` [Compound I-244], the Ki in test [1] was 2.87 nM; in test [2], 3.75 nM.
As to `Cn1ncc(C#N)c1-c1cc(Nc2ccc(-c3ccc(Cl)cc3)cn2)ncc1OCCO` [Compound I-189], the Ki in test [1] was determined as 0.663 nM; in test [2] it was 0.217 nM.
Take `Cc1nc(COC(C)C)nc(C)c1-c1cc(Nc2ncc(C(F)(F)F)cc2Cl)ncc1OCCO` [Compound I-204]: the Ki came to 2.7 nM in test [1] and 2.35 nM in test [2].
Take `COCc1nc(C)c(-c2cc(Nc3ncc(OC(C)(F)F)cc3Cl)ncc2OCCO)c(C)n1` [Compound I-266]: the results for the Ki in test [1] and in test [2] were 2.24 nM and 1.88 nM, respectively.
As for `Cc1nc(C)c(-c2cc(Nc3ccc(OC(F)(F)F)cn3)ncc2OCCO)c(C)n1` [Compound I-295], the Ki in test [1] stood at 7.58 nM; in test [2], 0.851 nM.
Consider `Cc1nc(C)c(-c2cc(Nc3ncc(OC(F)(F)F)cc3F)c(F)cc2OCCO)c(C)n1` [Compound I-174], for which the Ki in test [1] was 2.15 nM; in test [2], 0.888 nM.
Regarding `C[C@H](CO)Oc1cnc(Nc2ncc(C(F)(F)F)cc2F)cc1-c1cccc2c1CNC2=O` [Compound I-362], the Ki came out at 25.2 nM in test [1] and 0.924 nM in test [2].
As to `Cc1nc(C2CCC2)nc(C)c1-c1cc(Nc2ncc(C(F)(F)F)cc2Cl)ncc1OCCO` [Compound I-208], the figures for the Ki in test [1] and in test [2] were 1.67 nM and 1.02 nM, respectively.
For the compound `COCCOCc1nc(C)c(-c2cc(Nc3ncc(C(F)(F)F)cc3Cl)ncc2OCCO)c(C)n1` [Compound I-205], the Ki in test [1] worked out at 0.752 nM; in test [2], 2.94 nM.
The like results for `Cc1nc(C)c(-c2nc(Nc3ccc(-c4ccc(C(F)(F)F)nc4)cn3)c(F)cc2OCCO)c(C)n1` [Compound I-363] were, in that order, 2.76 nM and 2.32 nM.
With `COCc1nc(C)c(-c2cc(Nc3ncc(-c4cccc(C(F)F)c4)cc3Cl)ncc2OCCO)c(C)n1` [Compound I-262], the values for the Ki in test [1] and in test [2] were 0.541 nM and 0.558 nM, respectively.
For `Cc1nc(C)c(-c2cc(Nc3ncc(C(F)(F)F)cc3F)ncc2OCCO)c(C)n1` [Compound I-306], the Ki in test [1] was determined as 5.67 nM; in test [2], 1.27 nM.
For the compound `Cc1nc(C)c(-c2cc(Nc3ccc(-c4ccc(F)cc4)cn3)ncc2O[C@H](C)CO)c(C)n1` [Compound I-317], the results for the inhibition constant (Ki) in test [1] and in test [2] were 6.92 nM and 0.453 nM, respectively.
With `COCc1nc(C)c(-c2nc(Nc3ccc(C(F)(F)F)cn3)c(F)cc2OCCO)c(C)n1` [Compound I-334], the Ki in test [1] worked out at 9.69 nM; in test [2] it was 3.49 nM.
The like results for `Cc1nc(C)c(-c2cc(Nc3ccc(C4(C(F)(F)F)CC4)cn3)ncc2OCCO)c(C)n1` [Compound I-297] were, in that order, 4.37 nM and 2.07 nM.
As to `Cn1ncc(Br)c1-c1nc(Nc2ccc(C(F)(F)F)cc2)c(F)cc1OCCO` [Compound I-276], the Ki in test [1] amounted to 0.267 nM; in test [2], 0.135 nM.
Turning to `COCc1nc(C)c(-c2cc(Nc3ncc(OC(F)(F)F)cc3OC)ncc2OCCO)c(C)n1` [Compound I-196], the Ki stood at 5.17 nM in test [1] and 4.46 nM in test [2].
Consider `COCc1nc(C)c(-c2cc(Nc3ncc(-c4cnc(C(F)(F)F)nc4)cc3Cl)ncc2OCCO)c(C)n1` [Compound I-245], for which the Ki in test [1] amounted to 1.41 nM; in test [2], 5.85 nM.
For the compound `Cc1nc(C)c(-c2cc(Nc3ncc(OC(F)(F)F)cc3F)ncc2O[C@H](C)CO)c(C)n1` [Compound I-392], the Ki was 12.3 nM in test [1] and 2.88 nM in test [2].
For `Cn1ncc(Br)c1-c1cc(Nc2nc3ccc(F)cc3[nH]2)c(F)cc1OCCO` [Compound I-406], the Ki in test [1] was found to be 2.48 nM; in test [2], 0.463 nM.
The like results for `Cn1ncc(Br)c1-c1cc(Nc2ccc(C(F)(F)F)nn2)c(F)cc1OCCO` [Compound I-402] were, in that order, 11 nM and 0.533 nM.
For `Cc1cc(Cl)cnc1Nc1cc(-c2c(C)cnn2C)c(OCCO)cc1F` [Compound I-172], in that order: 2.49 nM and 0.812 nM.
In the case of `Cc1nc(COCC(F)F)nc(C)c1-c1cc(Nc2ncc(C(F)(F)F)cc2Cl)ncc1OCCO` [Compound I-375], the Ki in test [1] turned out to be 1.57 nM; in test [2], 1.27 nM.
As for `Cc1nc(N2CCCC2)nc(C)c1-c1cc(Nc2ncc(C(F)(F)F)cc2Cl)ncc1OCCO` [Compound I-209], the figures for the Ki in test [1] and in test [2] were 5.63 nM and 1.71 nM, respectively.
